# Assay results from publication PMC12122562, “Phase 1 studies of the indenoisoquinolines LMP776 and LMP744 in patients with solid tumors and lymphomas” (Cancer Chemotherapy and Pharmacology, 2025).
# Read-outs that look alike come from different tables or passages of the source.
# Assays:
# RAD51 = assay: qIF of paired tumor biopsies: nuclear RAD51 foci; format: in vivo, human
# From the text: The LMP744 protocol collected pre-treatment (baseline) and on-treatment paired biopsies from patients in the expansion cohort. Core needle tumor biopsies (18-gauge) were collected and flash-frozen at point of collection per NCI SOPs (https://dctd.cancer.gov/ResearchResources/biomarkers/docs/par/SOP340507_Biopsy_Frozen.pdf) as described to preserve labile post-translational modifications such as phosphorylation. Biopsy pairs were thawed in formalin, fixed in paraffin embedded together with control tissues following NCI SOP340550 (https://dctd.cancer.gov/ResearchResources/biomarkers/DDR3/SOP340550_Biopsy_Section_Testis_Jejunum_Controls.pdf). TOP1 and TOP1cc were measured with a cocktail containing custom-conjugated rabbit monoclonal antibody anti-TOP1-DIG (Abcam, EPR5376 (2)) and mouse monoclonal antibody anti-TOP1cc (clone 1.1A [34, 35], EMD Millipore) that were detected with reporter secondary antibodies AlexaFluor-647 IgG fraction monoclonal mouse anti-digoxin (Jackson ImmunoResearch) and goat/anti-mouse AlexaFluor-488, respectively. Phosphorylated KAP1 (pKAP1, phosphorylated at S824) was measured using custom-conjugated pKAP1-pS824-DNP (Abcam, EPR5248) and detected with AlexaFluor-488 conjugated with anti-dinitrophenyl-KLH rabbit IgG Antibody Fraction (DNP-488, ThermoFisher). […]
# [1] = Plasma pharmacokinetics of LMP744, non-compartmental; format: in vivo, human; details: for half-life / AUC(0-inf) / AUC(0-t) / Cmax / Tmax: human, plasma, intravenous
# Method: Blood was collected during cycle 1 in the LMP744 study on C1D1 at the end of infusion (EOI), then again at 0.25, 0.5, 1, 2, 4, and 6 h after EOI. Blood was also collected prior to infusion and at EOI on days 2–5 during cycle 1, then again at 1 week (168 h) after C1D1 EOI. Samples were collected in EDTA tubes with 2 mL of blood per sample. Samples were centrifuged and plasma was stored at − 70 °C. Samples were analyzed using a validated LC–MS or LC–MS/MS method for each IIQ as previously described. Plasma-time data were analyzed using WinNonlin (Pharsight, Mountain View, CA). AUC values were calculated by non-compartmental analysis and end-of-infusion concentrations were measured on days 1 and 5 of cycle 1. Sample collection and analysis of LMP776 pharmacokinetics were performed as previously described.
compound,measurement,setting,value
COc1cc2c3c(n(CCCNCCO)c(=O)c2cc1OC)-c1cc2c(cc1C3=O)OCO2 [LMP744],Patients with significant drug-induced increases in nuclear RAD51,"RAD51; MTD, C1D2, p = 0.0091 for group effect",4 of 6
same,Nuclear RAD51 response,"RAD51; patient 29, MTD, C1D2",at least 5 % of cells with ≥ 5 foci
same,Cl,"[1]; DL1, 6 mg/m2, n=1",42.3 L/h/m2
same,Vss,"[1]; DL1, 6 mg/m2, n=1",1033.0 L/m2
same,Cl,"[1]; DL2, 12 mg/m2, n=1",74.0 L/h/m2
same,Vss,"[1]; DL2, 12 mg/m2, n=1",1369.0 L/m2
same,Cl,"[1]; DL3, 24 mg/m2, n=3",77.9 (11.2) L/h/m2
same,Vss,"[1]; DL3, 24 mg/m2, n=3",1312.7 L/m2
same,Cl,"[1]; DL4, 48 mg/m2, n=1",72.7 L/h/m2
same,Vss,"[1]; DL4, 48 mg/m2, n=1",828.0 L/m2
same,Cl,"[1]; DL5, 96 mg/m2, n=1",51.7 L/h/m2
same,Vss,"[1]; DL5, 96 mg/m2, n=1",836.6 L/m2
same,Cl,"[1]; DL6 (MTD), 190 mg/m2, n=16",59.1 (26.6) L/h/m2
same,Vss,"[1]; DL6 (MTD), 190 mg/m2, n=16",845.0 L/m2
same,Cl,"[1]; DL7, 260 mg/m2, n=10",73.8 (35.4) L/h/m2
same,Vss,"[1]; DL7, 260 mg/m2, n=10",867.8 L/m2
same,half-life,"[1]; 6 mg/m2, DL1, 6 mg/m2, n=1, read-out: t1/2 (converted)",23.4 h
same,half-life,"[1]; 12 mg/m2, DL2, 12 mg/m2, n=1, read-out: t1/2 (converted)",19.1 h
same,half-life,"[1]; 24 mg/m2, DL3, 24 mg/m2, n=3, read-out: t1/2 (converted)",14 h
same,half-life,"[1]; 48 mg/m2, DL4, 48 mg/m2, n=1, read-out: t1/2 (converted)",15.5 h
same,half-life,"[1]; 96 mg/m2, DL5, 96 mg/m2, n=1, read-out: t1/2 (converted)",16.2 h
same,half-life,"[1]; 190 mg/m2, DL6 (MTD), 190 mg/m2, n=16, read-out: t1/2 (mean half-life) (converted)",13.6 h
same,half-life,"[1]; 190 mg/m2, MTD (DL6, 190 mg/m^2, n = 16), read-out: Half-life, range",7.2 to 23.4 h
same,half-life,"[1]; 190 mg/m^2, patient 8, Hodgkin lymphoma, read-out: Longest drug half-life measured in this study (converted)",23.4 h
same,half-life,"[1]; 260 mg/m2, DL7, 260 mg/m2, n=10, read-out: t1/2 (converted)",10.9 h
same,AUC(0-inf),"[1]; DL1, 6 mg/m2, n=1",142 ng·h/mL
same,AUC(0-t),"[1]; DL1, 6 mg/m2, n=1",91.7 ng·h/mL
same,Cmax,"[1]; DL1, 6 mg/m2, n=1",48.4 ng/mL
same,Tmax,"[1]; DL1, 6 mg/m2, n=1",1 h
same,AUC(0-inf),"[1]; DL2, 12 mg/m2, n=1",162 ng·h/mL
same,AUC(0-t),"[1]; DL2, 12 mg/m2, n=1",117 ng·h/mL
same,Cmax,"[1]; DL2, 12 mg/m2, n=1",69.6 ng/mL
same,Tmax,"[1]; DL2, 12 mg/m2, n=1",1 h
same,AUC(0-inf),"[1]; DL3, 24 mg/m2, n=3",313 ng·h/mL
same,AUC(0-t),"[1]; DL3, 24 mg/m2, n=3",234 ng·h/mL
same,Cmax,"[1]; DL3, 24 mg/m2, n=3",78.1 ng/mL
same,Tmax,"[1]; DL3, 24 mg/m2, n=3",1.6 h
same,AUC(0-inf),"[1]; DL4, 48 mg/m2, n=1",800 ng·h/mL
same,AUC(0-t),"[1]; DL4, 48 mg/m2, n=1",632 ng·h/mL
same,Cmax,"[1]; DL4, 48 mg/m2, n=1",446 ng/mL
same,Tmax,"[1]; DL4, 48 mg/m2, n=1",1 h
same,AUC(0-inf),"[1]; DL5, 96 mg/m2, n=1",1860 ng·h/mL
same,AUC(0-t),"[1]; DL5, 96 mg/m2, n=1",1390 ng·h/mL
same,Cmax,"[1]; DL5, 96 mg/m2, n=1",433 ng/mL
same,Tmax,"[1]; DL5, 96 mg/m2, n=1",1 h
same,AUC(0-inf),"[1]; DL6 (MTD), 190 mg/m2, n=16",4650 ng·h/mL
same,AUC(0-t),"[1]; DL6 (MTD), 190 mg/m2, n=16",3770 ng·h/mL
same,Cmax,"[1]; DL6 (MTD), 190 mg/m2, n=16",1570 ng/mL
same,Tmax,"[1]; DL6 (MTD), 190 mg/m2, n=16",1 h
same,AUC(0-inf),"[1]; DL7, 260 mg/m2, n=10",4100 ng·h/mL
same,AUC(0-t),"[1]; DL7, 260 mg/m2, n=10",3580 ng·h/mL
same,Cmax,"[1]; DL7, 260 mg/m2, n=10",1500 ng/mL
same,Tmax,"[1]; DL7, 260 mg/m2, n=10",1 h
same,Dependence of half-life on dose,[1]; in vivo,did not vary with dose level
same,Systemic exposure (AUC) versus dose level,[1]; in vivo,increased linearly with dose level
